Tests used:
[1] = Loading of ATR inhibitors into TEA-SOS liposomes and liposome characterization; assay type: physicochemical
Description: Sodium sucrose octasulfate (equivalent weight 144.8) is a sodium salt of sucrose derivate in which all hydroxyl groups have formed sulfuric acid esters. Sixty gram of sucrose octasulfate (SOS) sodium salt were dissolved in 150 ml of di water, heated with shaking (swirling) of a 50° C. water bath. The solution was passed through a column packed with sulfonated polystyrene divinylbenzene copolymer cation exchange resin beads (Dowex 50Wx8-100-200 mesh, Dow Chemical Co.). […] The eluent was monitored using a conductivity detector. The SOS fraction was collected corresponding to conductivity peak and immediately titrated with neat triethylamine (TEA) solution to pH 6-6.5. The solution was analyzed for residual sodium by potentiometry using a sodium-sensitive electrode and for SOS concentration using a refractometer. The solution having residual sodium less than 0.25% was diluted with di water to final SOS concentration 1.1 M and then sterile-filtered using Millipore 0.22 μm Steri-Top filter.
Cholesterol (Chol) was purchased from Avanti Polar Lipids, Alabaster, Ala., USA, hydrogenated soy phosphocholine (HSPC) and methoxy-poly(ethylene glycol)-1,2-distearoyl-sn-glyceryl (PEG2000-DSG) were obtained from Lipoid GmbH, Ludwigshafen, Germany.
Chol, HSPC and PEG2000-DSG were co-dissolved in 100% ethanol (200-proof, Sigma cat #: 459828) at a molar ratio of 3:2:0.15 at 65° C. The solution of TEA-SOS (10 times the volume of added ethanol) was mixed with the lipid solution at 60-65° C. and stirred at this temperature until a homogeneous milky suspension of multilamellar vesicles was formed. This suspension was extruded 3 times through 5 stacked polycarbonate track-etched filters (Corning Nuclepore) with the pore size of 100 nm using argon pressure extruder (Lipex Biomembranes) at 60-65° C., and resulting unilamellar liposomes were quickly chilled in ice and then stored at 4-6° C. before use. Concentration of phospholipids was measured by phosphate assay and particle diameter was recorded on a Malvern Nanosizer.
Prior to drug loading, the TEA-SOS gradient was created by removing excess of un-trapped TEA-SOS using gel-chromatography (Sepharose CL-4B, Pharmacia). Osmolarity of liposomes was balanced using 50% dextrose solution. Final dextrose concentration was 15%.
ATR inhibitors were dissolved in 15% dextrose solutions in di water by titration with 1 M HCl and heating at 45° C. and then filtered with 0.2 micron NALGENE 13 mm Syringe Filters. Drug concentration in the solution was detected by HPLC. […]
The liposome-drug mixture was incubated with occasional agitation for 30 minutes at 65° C. The incubation mixture was quickly cooled down and incubated for 10 minutes at 0° C., then allowed to attain ambient temperature. Un-encapsulated drug was removed by gel chromatography on Sephadex G-25 (Amersham Pharmacia) eluted with HBS-6.5 buffer (5 mM 2-(4-(2-hydroxyethyl)-piperazino)-ethylsulfonic acid (HEPES), 144 mM NaCl, pH 6.5). Liposome fractions eluted in the void volume were combined, sterilized by 0.2 micron filtration, and stored at 4-6° C. before use. The liposomes were characterized by lipid concentration, drug concentration, and particle size (Table 2).

[2] = biological target: ATR/ATRIP(h) (Homo sapiens (Human), UniProt Q13535); test: Eurofins ATR/ATRIP HTRF assay, p53 Ser15 phosphorylation; assay type: biochemical; design: key to Top / Bottom: % of DMSO positive control activity; settings: ATP 10 μM
Chain of ATR/ATRIP(h) (Q13535 whole entry): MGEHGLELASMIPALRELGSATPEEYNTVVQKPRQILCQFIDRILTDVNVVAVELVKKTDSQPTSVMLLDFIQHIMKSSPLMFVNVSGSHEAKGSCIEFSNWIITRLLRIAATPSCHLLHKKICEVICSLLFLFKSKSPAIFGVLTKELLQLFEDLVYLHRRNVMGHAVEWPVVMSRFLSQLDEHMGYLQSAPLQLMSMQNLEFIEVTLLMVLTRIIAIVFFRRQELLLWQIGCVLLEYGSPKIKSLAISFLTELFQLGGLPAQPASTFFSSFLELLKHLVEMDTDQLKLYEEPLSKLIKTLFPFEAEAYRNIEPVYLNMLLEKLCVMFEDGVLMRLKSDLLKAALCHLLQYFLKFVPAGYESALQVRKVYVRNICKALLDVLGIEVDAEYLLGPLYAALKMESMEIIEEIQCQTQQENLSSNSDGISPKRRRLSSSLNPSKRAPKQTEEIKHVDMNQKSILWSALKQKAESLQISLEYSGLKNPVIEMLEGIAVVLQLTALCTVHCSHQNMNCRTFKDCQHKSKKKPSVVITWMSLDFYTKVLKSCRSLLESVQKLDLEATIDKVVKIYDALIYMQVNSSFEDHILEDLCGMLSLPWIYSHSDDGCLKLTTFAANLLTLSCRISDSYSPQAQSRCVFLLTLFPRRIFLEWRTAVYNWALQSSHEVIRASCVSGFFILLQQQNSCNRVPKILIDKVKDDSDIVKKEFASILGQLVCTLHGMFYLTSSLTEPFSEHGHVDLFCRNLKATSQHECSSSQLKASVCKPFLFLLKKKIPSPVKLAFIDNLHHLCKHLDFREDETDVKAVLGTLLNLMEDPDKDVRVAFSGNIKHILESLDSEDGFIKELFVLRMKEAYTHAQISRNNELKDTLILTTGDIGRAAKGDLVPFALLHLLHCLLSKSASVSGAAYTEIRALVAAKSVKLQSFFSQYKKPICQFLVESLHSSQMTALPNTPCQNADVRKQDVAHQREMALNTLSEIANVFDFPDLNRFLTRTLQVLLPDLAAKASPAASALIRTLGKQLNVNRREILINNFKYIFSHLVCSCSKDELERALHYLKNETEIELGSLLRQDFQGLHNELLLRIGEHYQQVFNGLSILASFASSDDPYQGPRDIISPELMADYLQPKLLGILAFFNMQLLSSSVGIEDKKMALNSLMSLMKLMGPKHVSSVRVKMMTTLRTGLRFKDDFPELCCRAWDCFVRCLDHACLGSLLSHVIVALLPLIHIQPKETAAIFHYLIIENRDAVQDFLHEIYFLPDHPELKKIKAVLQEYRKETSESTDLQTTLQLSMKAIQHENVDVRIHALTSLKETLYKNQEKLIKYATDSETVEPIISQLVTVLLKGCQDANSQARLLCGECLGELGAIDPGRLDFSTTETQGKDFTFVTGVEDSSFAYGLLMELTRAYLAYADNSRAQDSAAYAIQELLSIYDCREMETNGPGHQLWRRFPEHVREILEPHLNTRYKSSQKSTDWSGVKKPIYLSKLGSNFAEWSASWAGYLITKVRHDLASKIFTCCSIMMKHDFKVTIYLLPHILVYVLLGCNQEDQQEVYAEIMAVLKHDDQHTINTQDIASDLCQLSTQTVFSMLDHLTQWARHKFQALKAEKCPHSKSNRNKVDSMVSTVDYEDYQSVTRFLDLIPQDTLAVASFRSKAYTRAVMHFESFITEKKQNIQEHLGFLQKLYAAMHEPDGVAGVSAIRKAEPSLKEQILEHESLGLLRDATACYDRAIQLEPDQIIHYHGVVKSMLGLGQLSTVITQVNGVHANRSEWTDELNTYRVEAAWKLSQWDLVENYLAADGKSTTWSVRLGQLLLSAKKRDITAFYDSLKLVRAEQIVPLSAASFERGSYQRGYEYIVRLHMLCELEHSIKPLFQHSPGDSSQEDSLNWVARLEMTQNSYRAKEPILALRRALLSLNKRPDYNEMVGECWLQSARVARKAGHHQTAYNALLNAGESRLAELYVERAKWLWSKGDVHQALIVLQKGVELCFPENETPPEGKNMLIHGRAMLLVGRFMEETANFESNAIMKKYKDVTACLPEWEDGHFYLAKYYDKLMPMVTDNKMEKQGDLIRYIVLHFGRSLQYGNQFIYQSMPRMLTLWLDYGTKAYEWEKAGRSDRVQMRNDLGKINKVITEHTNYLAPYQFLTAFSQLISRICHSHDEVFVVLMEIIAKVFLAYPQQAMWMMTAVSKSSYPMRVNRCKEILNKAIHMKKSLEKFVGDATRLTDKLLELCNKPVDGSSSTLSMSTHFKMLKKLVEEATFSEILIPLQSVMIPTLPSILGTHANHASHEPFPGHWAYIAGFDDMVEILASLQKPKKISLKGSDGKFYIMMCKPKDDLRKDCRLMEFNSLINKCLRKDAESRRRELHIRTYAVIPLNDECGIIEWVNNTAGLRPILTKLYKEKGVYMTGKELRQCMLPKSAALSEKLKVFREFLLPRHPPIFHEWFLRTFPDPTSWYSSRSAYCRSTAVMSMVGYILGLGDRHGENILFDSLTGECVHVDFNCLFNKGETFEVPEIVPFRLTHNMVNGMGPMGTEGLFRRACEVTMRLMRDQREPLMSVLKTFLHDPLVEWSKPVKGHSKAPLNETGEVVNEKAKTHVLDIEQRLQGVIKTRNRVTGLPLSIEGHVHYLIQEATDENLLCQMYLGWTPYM
Chain of ATR/ATRIP(h) (Q8WXE1 whole entry partner): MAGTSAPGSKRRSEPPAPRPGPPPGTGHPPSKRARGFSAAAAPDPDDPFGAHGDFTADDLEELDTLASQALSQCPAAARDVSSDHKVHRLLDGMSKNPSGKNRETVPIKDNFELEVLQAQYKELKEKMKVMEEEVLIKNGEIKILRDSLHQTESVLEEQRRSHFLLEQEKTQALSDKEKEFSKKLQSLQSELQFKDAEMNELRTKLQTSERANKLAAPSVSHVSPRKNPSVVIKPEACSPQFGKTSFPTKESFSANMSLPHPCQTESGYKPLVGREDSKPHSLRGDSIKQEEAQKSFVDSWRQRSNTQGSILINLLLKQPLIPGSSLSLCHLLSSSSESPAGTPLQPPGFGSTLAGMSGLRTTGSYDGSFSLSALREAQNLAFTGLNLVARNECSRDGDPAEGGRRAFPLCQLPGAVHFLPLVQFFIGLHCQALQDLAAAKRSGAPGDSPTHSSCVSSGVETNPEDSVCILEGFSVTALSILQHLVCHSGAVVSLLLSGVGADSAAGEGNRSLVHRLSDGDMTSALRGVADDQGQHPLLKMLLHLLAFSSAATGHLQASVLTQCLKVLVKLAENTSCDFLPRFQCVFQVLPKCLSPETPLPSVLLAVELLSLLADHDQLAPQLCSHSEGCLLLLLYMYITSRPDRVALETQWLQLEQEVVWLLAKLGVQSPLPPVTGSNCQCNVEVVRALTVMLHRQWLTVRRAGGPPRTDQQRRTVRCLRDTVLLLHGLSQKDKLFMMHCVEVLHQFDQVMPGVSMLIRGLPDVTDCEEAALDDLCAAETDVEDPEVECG
Description: An EC50 determination was conducted for the supplied set of compounds against the kinase ATR/ATRIP(h), using a linear enzyme concentration in the Eurofins ATR/ATRIP HTRF assay using GST tagged full length p53 as the substrate.
ATR/ATRIP phosphorylation of p53 on Ser15 was measured via formation of an energy transfer complex consisting of a Europium-labelled anti-phospho Ser15 p53 antibody and an anti-GST-d2 antibody. All data points were performed in duplicate with DMSO controls and EDTA blanks.
ATR/ATRIP(h) was pre-diluted in 25 mM HEPES pH 8.0, 0.01% Brij-35, 1% Glycerol, 5 mM DTT, 1 mg/mL BSA and assayed in 25 mM HEPES pH 8.0, 0.01% Brij-35, 1% Glycerol, 10 mM MnCl2 using 30 nM GST, cMyc p53-(hu,FL) as the substrate. The reaction was initiated with the addition of ATP to a final concentration of 10 μM.
The individual replicates were expressed in terms of the % of the DMSO positive control activity. The mean activity (% control) of each inhibitor concentration was plotted against the inhibitor concentration, and EC50 values were determined using […] PRISM.
The data expressed as % control activity were plotted against inhibitor concentration, and fitted to a four parameter logistic using […] PRISM. Graphs for each compound are shown alongside the data in the accompanying Excel report.

[3] = system: H358 cells; test: Cell death and growth assay, H358 cells; assay type: cell-based; settings: set concentrations, in combination with Gemcitabine
Source text: (§1) In all cases, relative cell proliferation is reduced with the combinations compared to the drugs alone (FIG. 21B-C).

[4] = system: U2OS cells; test: Cell death and growth assay, U2OS cells; assay type: cell-based; settings: set concentrations, in combination with Gemcitabine
Description: U20S and all other cells were grown in (RPMI) supplemented with 10% fetal bovine serum (FBS) and antibiotics. Imaging and time-lapse compatible NucLight red cell lines were generated as recommend by Essen Bioscience Inc. using lentiviral particles, infection and puromycin selection protocols.
The results were compared back to a prediction of cell growth and death with the combination of the two compounds (FIG. 18A).
as §1

[5] = four parameter logistic fit of % control activity

## CN(C)CCC1CCN(CCS(=O)(=O)c2ccc(-c3cnc(N)c(C(=O)Nc4ccccc4)n3)cc2)CC1 [Compound 5, 3-amino-6-(4-((2-(4-(2-(dimethylamino)ethyl)piperidin-1-yl)ethyl)sulfonyl)phenyl)-N-phenylpyrazine-2-carboxamide]
[1]; TEA-SOS liposomes, Compound 1 at ratio before loading 379
  Loading efficiency (%): 84 ± 8%
[1]; TEA-SOS liposomes, input ratio before loading (Compound 1: 379)
  Drug/lipid ratio after loading: 619 ± 110
[1]; liposomes loaded with the ATR inhibitor
  Liposome size, (mean ± SD) nm: 120 ± 29 nm
[2]
  EC50: 0.234 µM
[2]; four parameter logistic fit
  Hill: −0.819
[2]; [5]
  Bottom: 1
  Top: 95
[3]
  relative cell proliferation vs the drugs alone: reduced
[4]
  relative cell proliferation vs the drugs alone: reduced
